Non-standard residues stand in square brackets, D forms with d. Residues, ends and D or L forms follow the SMILES beside them. *: point of attachment. Hydrocinnamoyl = O=C(CCc1ccccc1)*; pS = N[C@@H](COP(=O)(O)O)C(=O)O; X2 = COc1ccc(CC(=O)*)cc1OC
Molecular target: BRCT-BRCA1 (Homo sapiens, UniProt P38398)
Experiment: Fluorescence polarization
Type: binding

Sequence of BRCT-BRCA1 (P38398 1646-1859 limits assumed): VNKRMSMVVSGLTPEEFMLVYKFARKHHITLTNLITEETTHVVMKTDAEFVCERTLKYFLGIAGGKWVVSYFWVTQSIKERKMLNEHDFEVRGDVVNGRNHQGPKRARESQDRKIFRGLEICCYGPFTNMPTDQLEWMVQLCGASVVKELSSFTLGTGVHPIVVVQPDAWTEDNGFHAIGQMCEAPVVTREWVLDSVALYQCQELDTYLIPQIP

Row | fold loss of activity compared to 9 (compared to mimic 9) | SMILES | fold higher activity than parent peptide 4 (compared to parent peptide 4)
1 | – | CC(C)[C@H](NC(=O)[C@@H]1CCCN1C(=O)[C@H](COP(=O)(O)O)NC(=O)CCc1ccccc1)C(=O)N[C@@H](Cc1ccccc1)C(=O)O [compound 10] (Hydrocinnamoyl-[pS]PVF-OH; N-terminus assumed) | ~ 3 fold
2 | ~ 150 fold | COc1ccc(CC(=O)N[C@@H](COP(=O)(O)O)C(=O)N2CCC[C@H]2C(=O)N[C@H](C(=O)N[C@@H](Cc2ccccc2)C(=O)O)C(C)C)cc1OC [compound 13] (X2-[pS]PVF-OH; N-terminus assumed) | –
